In ChEMBL document CHEMBL3507680, “University of Dundee, Gates Library screen for HepG2 cell viability”:

Test: Human HepG2 cell viability assay in 384 well format
Assay type: toxicity, cell-based
Design: dose 125 nL, time 70.5 hour; concentration not given beside the values
Settings: HepG2 cells, read-out: Inhibition

Row | Compound | cytotoxicity at 70.5 h [%]
1 | Cc1nc(N)cc(C2CCN2CCC(N)=O)n1 (stereo unspecified) | -3.73
2 | O=C(CCc1ccccc1)N1CCC(N2CCNC2=O)CC1 | -8.47
3 | CC(C)(C)n1ncc2c(=O)[nH]c(NC3CC=CC3)nc21 | 0.3
4 | NCc1ccc(OC(F)F)cc1OC(F)F | -15.9
5 | CC(=O)N1CC[C@H](c2nc3cc(F)ccc3o2)C1 | 2.32
6 | CS(=O)(=O)N1CCC(CNc2c(Cl)cccc2C#N)CC1 | -1.91
7 | Cc1cn2c(=O)c(-c3ccnc(NC4CCOCC4)n3)cnc2s1 | -4.12
8 | Cc1nc(C(F)(F)F)nc(N2CCC3(CC2)CC(C(=O)O)N(C)C3)c1C (stereo unspecified) | -5.6
9 | CCS(=O)(=O)N1CCC(Oc2ccc(C#N)cc2)CC1 | 24.1
10 | CCOc1ccc(C#N)cc1NCC(=O)NC1(C#N)CCCC1 | -6.01
11 | O=C(CCc1ccc(Cl)s1)N1CCCC(N2CCNC2=O)C1 (stereo unspecified) | -17.9
12 | CCSc1cc(C(=O)NCC(C)(C)N(C)C)ccn1 | -90.6
13 | O[C@@H]1C[C@@H](c2nc(Cc3ccccc3)no2)N(Cc2ccc(F)cc2)C1 | -19.1
14 | CC(C)c1ccc(C(CN)N2CCc3sccc3C2)cc1 (stereo unspecified) | -2.57
15 | c1ccc(CN2CC[C@@H]3O[C@@H](COCCN4CCCC4)CC[C@@H]32)nc1 | -13.6
16 | CCc1ccccc1Nc1noc2c1CN(C(=O)CNC(C)=O)CC2 | 6.37
17 | CC(NC(=O)Nc1cccnc1N1CCCC1)c1ccncc1 (stereo unspecified) | 0.728
18 | CC(=O)NCC(=O)NCC1Cn2nnc(-c3cccc(F)c3)c2CO1 (stereo unspecified) | -0.435
19 | CSc1ccc(NCC(=O)NCC2CC2)cc1F | -3.73
20 | Cc1nc[nH]c1C(=O)NCc1cccnc1N(C)C1CCCCC1 | 4.83
21 | Cc1cn2c(n1)CCC(NC(=O)c1ccc(CS(C)(=O)=O)o1)C2 (stereo unspecified) | -2.86
22 | CC(C)(C)C(=O)NCCNc1cc(N2CCCC2)ncn1 | -8.01
23 | O=C(Nc1ccc(-c2nc3c([nH]2)CCNC3)cc1)N1CCCC1 | -15.7

Row | Compound | cytotoxicity at 70.5 h [%]
24 | Cc1cc(CNC2(c3ccccc3F)CC2)no1 | -4.02
25 | COc1cc(C(=O)NCC2CCCN(Cc3ccco3)C2)ccn1 (stereo unspecified) | 16.1
26 | COc1ccc(S(=O)(=O)NCCCc2ccc(N(C)C)cc2)cc1F | -1.57
27 | Cn1cc(CN(C(=O)c2ccc(O)c(Cl)c2)C2CC2)cn1 | -14.8
28 | O=C(CCN1CCOC(Cn2cccn2)C1)NC1CCCC1 (stereo unspecified) | 17.5
29 | COc1ccc(NC(=O)N2CCC(CSC)C2)cc1C (stereo unspecified) | 2.45
30 | Cn1ccnc1CC1CCCN(C(=O)NCCOc2cccnc2)C1 (stereo unspecified) | 1.38
31 | CNC(=O)CN1CCOC(c2cccc(N)n2)C1 (stereo unspecified) | -1.41
32 | CN1CCOC[C@H]1c1nc(-c2cccc(F)c2)c[nH]1 | 2.61
33 | CC1CCCN(Cc2ccc(CNC(=O)NCc3ccncc3)cc2)C1 (stereo unspecified) | -5.32
34 | Cc1ccc(CN2CCCC3(CCN(Cc4ccc(C)o4)C3)C2)o1 (stereo unspecified) | -11.5
35 | COc1cc(C)sc1C(=O)N1CCCC(n2nc(C)nc2C)C1 (stereo unspecified) | 21.7
36 | CCCS(=O)(=O)N1C[C@@H]2CN(Cc3cccs3)CCO[C@@H]2C1 | -14.7
37 | Cc1nc(Nc2ncccn2)cc(C2CCN(CC(C)C)C2)n1 (stereo unspecified) | -15.1
38 | CC(C)CC(C)NC1CCN(c2cccc(-c3cscn3)c2)CC1 (stereo unspecified) | -8.68
39 | COc1cc(S(=O)(=O)N2C[C@@H](C)[C@@](C)(O)C2)c(C)cc1C | 0.245
40 | Cc1ncsc1CCCNC(=O)C1CC2(CCNCC2)CN1C (stereo unspecified) | 13
41 | CCn1ncc2c1C(COC)CN(Cc1cccnc1)C2 (stereo unspecified) | 21.4
42 | Cc1ccc(N2CCCC3(CCN(C(=O)C4CC4)C3)C2)nn1 (stereo unspecified) | -3.58
43 | COc1cc(N2CC[C@@H](OC)[C@@H]2Cc2ccccc2)ncn1 | -1.02
44 | O=C(NCCNc1ncccn1)N1CCCC1 | -0.644
45 | N#CCCN(Cc1cccnc1)C(=O)c1ccn(-c2ccccc2)n1 | 1.01
46 | CCOCC(=O)N1CCC(C)(c2nccs2)CC1 | 13.6
